These compounds were tested on normal human melanocytes (assay: Depigmenting activity (reduction of melanin production) in normal human melanocytes in vitro). Conditions: 200 μM (max dose tested).
Assay type: cell-based

Point of comparison: CCOC(=O)CNC(=O)C(OC(C)=O)C1OC[C@@H](OC(C)=O)[C@H](OC(C)=O)[C@H]1O (stereo partly shown) [Compound 19], “% depigmentation at the max dose tested 200 μM (run 2)” value 43%. Against it:
- CCOC(=O)[C@@H](CO)NC(=O)C(O)[C@@H]1OC[C@@H](O)[C@H](O)C1O (stereo partly shown) [Compound 12] — lower, 28%

Each compound was assayed on normal human melanocytes in the same assay as above. Conditions: run 1, 72 hours incubation, optical density (melanin).
Assay type: cell-based
Description: The measurement of the depigmenting activity (reduction of melanin production) of compounds of formula (I) was performed by assaying normal human melanocytes in vitro as follows.
First, normal human melanocytes are cultured and distributed in wells. After 24 hours, the culture medium was replaced with a medium containing the compounds of formula (I) to be evaluated. The cells were incubated for 72 hours before measuring the final optical density, which measures the amount of melanin produced by the melanocytes. The compounds are tested at 100 μM after calibration.
Various test runs were performed and the results are collated in the following table.

Point of comparison: NC(=O)CCNC(=O)C(O)[C@@H]1O[C@H](CO)[C@@H](O)[C@H](O)C1O (stereo partly shown) [Compound 7], “% Depigmentation at 100 μM (run 1)” value 34%. Against it:
- NC(=O)[C@@H](CO)NC(=O)C(O)[C@@H]1OC[C@@H](O)[C@H](O)C1O (single isomer, unassigned) [Compound 11-dia1] — lower, 28%
- O=C(O)c1ccc(NC(=O)C(O)C2O[C@H](CO)[C@@H](O)[C@H](O)[C@H]2O)cc1O (stereo partly shown) [Compound 1] — lower, 13%
- NC(=O)CNC(=O)C(O)[C@@H]1O[C@H](CO)[C@@H](O)[C@H](O)C1O (stereo partly shown) [Compound 4] — lower, 19%
- NC(=O)[C@@H](CO)NC(=O)C(O)[C@@H]1O[C@H](CO)[C@@H](O)[C@H](O)C1O (stereo partly shown) [Compound 5] — lower, 31%
- NC(=O)C1CCCN1C(=O)C(O)[C@@H]1O[C@H](CO)[C@@H](O)C(O)C1O (stereo partly shown) [Compound 6] — lower, 29%
- NC(=O)CNC(=O)C(O)[C@@H]1OC[C@@H](O)[C@H](O)C1O (stereo partly shown) [Compound 10] — lower, 20%

Same assay, conditions: run 2, 72 hours incubation, optical density (melanin)

Point of comparison: CCOC(=O)[C@@H](CO)NC(=O)C(O)[C@@H]1OC[C@@H](O)[C@H](O)C1O (stereo partly shown) [Compound 12], “% depigmentation at 100 μM (run 2)” value 20%. Against it:
- NC(=O)[C@@H](CO)NC(=O)C(O)[C@@H]1OC[C@@H](O)[C@H](O)C1O (single isomer, unassigned) [Compound 11-dia2] — higher, 32%
- CCOC(=O)[C@@H](CO)NC(=O)C(OC(C)=O)C1OC[C@@H](OC(C)=O)[C@H](OC(C)=O)[C@H]1O (single isomer, unassigned) [Compound 20-dia1] — higher, 23%
- CCOC(=O)CNC(=O)C(OC(C)=O)C1OC[C@@H](OC(C)=O)[C@H](OC(C)=O)[C@H]1O (stereo partly shown) [Compound 19] — lower, 15%

Source: US11364189B2, “Method for the treatment of keratin materials using amide C-glycoside derivatives, and cosmetic composition containing same” (L'OREAL, priority 2016, dated 2022)
